Assay results taken from article PMC6504913 (Angewandte Chemie (International ed. in English), 2018).

How the values were obtained:
RAW 264.7 cells = assay: LPS-induced NO2^– formation in macrophage RAW 264.7 cells; format: cell-based; settings: 25 μM pretreatment 6 h, then LPS 1.0 μg/mL 18 h
[1] = format: physicochemical; settings: pH 7.4 aqueous buffer

For `C1COCCN1.COc1ccc(P(=S)(S)N2CCOCC2)cc1` (centres unmarked) [GYY4137], which “effect on LPS-induced NO2^– production” value (RAW 264.7 cells) is on record?
Its value is “less pronounced effect”.

With n-butylthiocarbamate [n-BuTCM-1] as the compound, how does the “stability in aqueous buffer (PNA formation)” value [1] read?
Its value is “stable”.
